Experimental data: patent publication US10017463B2, “Inhibitors of deubiquitinating proteases” (Brandeis University, priority 2014, dated 2018)
Like-named read-outs stand apart in the source and are kept apart here.

What was measured:
USP9x [1] = biological target: T1, USP9x (Homo sapiens, UniProt Q93008); test: HA-Ubiquitin-Vinylsulfone activity profiling in K562 lysates; type: biochemical
T1 construct: Lysate labeling assay on untransfected cells; endogenous in cells; host or cells: K562
Method: Panel B is an image of an immunoblot showing the titration of TCM23 and TCM28 in K562 lysates. Panel C is a plot showing the quantitation of band corresponding to USP9x in panel B. Panel D is an image of an immunoblot showing the titration of WP1130 in K562 lysates. Panel E is a plot showing the quantification of the efficacy of ITCs for the inhibition of USP9x in K562 lysates (see also Table 2).
[…] After this time HA-Ub-VS (1.5 μM) was added and incubated for 15 min. After this time reaction mixture (15 μL) was removed and quenched in 2× (final concentration) reducing Laemeli buffer. The reaction mixtures were heated to 37° C. for 10 min prior to analysis by western blot for HA.

USP9x [2] = biological target: T2, USP9x (Mus musculus, UniProt P70398); test: Cy5-Ub-VME profiling of BaF3 lysates; type: biochemical, murine; settings: BaF3 lysate, approximately 22 bands
T2 construct: endogenous in cells; host or cells: BaF3
T2 sequence (P70398 whole entry): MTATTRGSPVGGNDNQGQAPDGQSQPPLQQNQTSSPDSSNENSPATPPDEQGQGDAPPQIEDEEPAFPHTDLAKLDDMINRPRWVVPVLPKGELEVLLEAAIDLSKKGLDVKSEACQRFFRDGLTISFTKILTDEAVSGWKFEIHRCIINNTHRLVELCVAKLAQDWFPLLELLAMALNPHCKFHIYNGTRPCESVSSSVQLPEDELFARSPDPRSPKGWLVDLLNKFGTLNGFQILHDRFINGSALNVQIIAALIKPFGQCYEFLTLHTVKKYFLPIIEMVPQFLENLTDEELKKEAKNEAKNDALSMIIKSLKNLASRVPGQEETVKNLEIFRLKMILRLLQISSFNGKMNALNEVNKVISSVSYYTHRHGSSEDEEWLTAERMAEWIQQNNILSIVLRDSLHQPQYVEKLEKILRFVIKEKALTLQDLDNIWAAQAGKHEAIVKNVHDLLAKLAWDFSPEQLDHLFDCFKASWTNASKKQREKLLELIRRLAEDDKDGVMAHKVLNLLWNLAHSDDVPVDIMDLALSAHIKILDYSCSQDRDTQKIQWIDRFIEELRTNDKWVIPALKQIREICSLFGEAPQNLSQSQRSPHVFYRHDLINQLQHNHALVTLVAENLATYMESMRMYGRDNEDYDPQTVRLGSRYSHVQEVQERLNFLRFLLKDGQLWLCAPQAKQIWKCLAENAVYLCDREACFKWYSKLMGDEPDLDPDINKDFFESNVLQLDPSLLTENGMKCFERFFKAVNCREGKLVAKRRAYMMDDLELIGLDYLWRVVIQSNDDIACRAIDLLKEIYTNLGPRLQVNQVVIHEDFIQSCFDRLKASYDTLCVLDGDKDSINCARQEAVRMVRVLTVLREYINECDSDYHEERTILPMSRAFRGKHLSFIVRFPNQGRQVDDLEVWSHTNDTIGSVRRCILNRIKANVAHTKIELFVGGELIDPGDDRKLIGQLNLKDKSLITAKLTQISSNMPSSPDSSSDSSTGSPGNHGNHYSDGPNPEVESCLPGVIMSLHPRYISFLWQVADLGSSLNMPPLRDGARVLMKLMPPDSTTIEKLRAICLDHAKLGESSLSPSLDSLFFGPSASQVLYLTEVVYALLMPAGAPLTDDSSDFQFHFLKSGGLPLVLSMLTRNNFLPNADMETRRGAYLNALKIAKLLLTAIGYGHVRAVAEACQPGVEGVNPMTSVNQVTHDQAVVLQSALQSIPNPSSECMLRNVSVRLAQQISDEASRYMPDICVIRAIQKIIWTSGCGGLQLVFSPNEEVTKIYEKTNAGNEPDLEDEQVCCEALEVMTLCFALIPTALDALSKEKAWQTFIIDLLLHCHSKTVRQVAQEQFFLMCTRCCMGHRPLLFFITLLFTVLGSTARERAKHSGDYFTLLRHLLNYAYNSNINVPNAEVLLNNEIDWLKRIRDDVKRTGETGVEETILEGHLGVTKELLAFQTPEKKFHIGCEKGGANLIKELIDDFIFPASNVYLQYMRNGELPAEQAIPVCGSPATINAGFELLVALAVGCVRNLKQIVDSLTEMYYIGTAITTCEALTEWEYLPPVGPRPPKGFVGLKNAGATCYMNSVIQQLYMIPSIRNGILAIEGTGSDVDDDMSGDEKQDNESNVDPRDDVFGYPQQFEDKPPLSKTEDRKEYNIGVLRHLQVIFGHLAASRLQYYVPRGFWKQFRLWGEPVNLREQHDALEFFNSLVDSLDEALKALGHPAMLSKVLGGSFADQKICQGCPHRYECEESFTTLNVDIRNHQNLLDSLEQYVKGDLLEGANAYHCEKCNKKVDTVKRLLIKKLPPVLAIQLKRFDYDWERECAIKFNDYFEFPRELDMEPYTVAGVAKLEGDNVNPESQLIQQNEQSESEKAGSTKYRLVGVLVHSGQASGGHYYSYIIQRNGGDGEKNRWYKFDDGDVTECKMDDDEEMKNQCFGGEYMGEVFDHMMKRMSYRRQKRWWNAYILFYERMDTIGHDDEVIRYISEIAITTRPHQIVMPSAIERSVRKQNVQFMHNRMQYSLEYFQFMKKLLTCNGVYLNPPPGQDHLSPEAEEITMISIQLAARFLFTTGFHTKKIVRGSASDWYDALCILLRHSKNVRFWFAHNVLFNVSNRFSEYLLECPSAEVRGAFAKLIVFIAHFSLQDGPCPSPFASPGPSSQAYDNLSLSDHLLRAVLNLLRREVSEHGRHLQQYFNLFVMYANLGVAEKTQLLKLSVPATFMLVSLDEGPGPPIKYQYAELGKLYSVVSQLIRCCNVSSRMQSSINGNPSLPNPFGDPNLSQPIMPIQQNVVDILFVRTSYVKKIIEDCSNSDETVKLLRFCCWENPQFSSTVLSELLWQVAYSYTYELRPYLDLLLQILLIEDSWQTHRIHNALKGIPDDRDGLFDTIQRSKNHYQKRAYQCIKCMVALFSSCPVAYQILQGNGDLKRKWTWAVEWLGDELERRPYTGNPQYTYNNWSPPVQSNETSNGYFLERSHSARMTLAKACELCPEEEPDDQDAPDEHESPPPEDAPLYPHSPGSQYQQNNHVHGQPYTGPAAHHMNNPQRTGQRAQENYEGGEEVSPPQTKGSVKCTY
Method: Panel A is an image of an immunoblot showing representative scans of lysates treated with compound for 15 min then Cy5-Ub-VME. Panel B is a plot of the bands in each lane using Image J processing and analysis software.
Using Image J, the individual lanes from the lysates were plotted as a function of TU50 concentration.

BaF3/p210 cells = test: Proliferation assay (Alamar Blue), BaF3/p210; type: cell-based, murine; settings: for EC50: Mus musculus, BaF3, fresh media with compound added after 24 h, 24 h further growth, read-out: EC50 (viable cells)
From the text: This cell line consists of engineered murine leukemia cells that ectopically express Bcr-Abl. Parent BaF3 cells require exogenous interleukin 3 (IL3) because IL3 stimulates expression of MCL1, which is required for survival. However, BaF3/p210 cells require no exogenous interleukins but need Bcr-Abl for survival.

K562 cells = test: Annexin V-FITC/PI apoptosis assay, K562; type: cell-based; settings: 15 or 30 μM, 24 h
Method: (each point is shown as mean+/−s.d. of 2 replicates). Panel A is a bar graph showing the data for HeLa cells (30 μM); Panel B is a bar graph showing the data for K562 (30 μM); Panel C is a bar graph showing the data for K562 (15 μM).
Since K562 cells are dependent upon Bcr-Abl for survival, it was predicted that these cells would also be susceptible to TU compounds. However, K562 cells gave a very weak signal in the Alamar Blue® assay. In lieu of the Alamar Blue assay, an apoptosis assay was used to show susceptibility. This assay uses fluorescein-modified Annexin V to detect phosphatidyl serine (PS) on the cell surface. See Vermes et al., J. Immon. Meth. 184, 39-51 (1995). PS is typically expressed on the inner leaflet of the cell membrane. However in the early stages of apoptosis, PS translocates to the outer leaflet and can be bound by Annexin V. Thus, during apoptosis cells will become greener in the presence of Annexin V-Fluorescine.

[3] = biological target: T3, recombinant human 20S proteasome (Homo sapiens, UniProt P28074); test: 20S proteasome assay (Suc-Leu-Leu-Val-Tyr-AMC); type: biochemical; settings: 50 μM for the TU compounds (FIG. 6D)
T3 construct: purchased Boston Biochem
Method: To recombinant human 20S proteasome ([…]) in 50 mM potassium phosphate pH 7.6, 50 mM NaCl, 1 mM DTT was added the compound or DMSO. This mixture was incubated at 25° C. for 30 min after which time substrate (Suc-Leu-Leu-Val-Tyr-AMC, 100 μM or 17 μM) was added and release of AMC was measured as a function of time using a plate reader for 30 min. The steady state rates were calculated and normalized to the DMSO rate. The concentration of inhibitor required to inhibit the enzyme by 50% was calculated using prism.

G76VUb-GFP in COS1 cells = test: UbG76V-GFP proteasome assay in COS1 cells; type: cell-based
Method: COS1 cells at approx. 75% confluence in a 48 well plate were transiently transfected with a plasmid encoding G76VUb-GFP using Mirus 2020 reagent. After this time media with either compound in DMSO or 1% DMSO was added to the cells and the cells were incubated for 8 h. After this time, cells were trypsinized, diluted with 1% FBS in PBS (FACS buffer) then centrifuged at 700 g. After this time cells on ice were treated with FACS buffer containing propidium iodide (0.05 mg/mL). The GFP (indicating proteasome activity) and red fluorescence (dye exclusion showing acute toxicity) were subsequently measured by FACS.

Bcr-Abl = Bcr-Abl immunoblot in K562 cells; type: cell-based; settings: for decrease in Bcr-Abl: 30 μM, 4 h
Method: After this time cells were lysed and sonicated in SDS. Whole cell lysates were analyzed for Bcr-Abl and tubulin in triplicate. Panel B is a bar graph showing the quantitation of the blots in Panel A. Panel C is a plot showing differing concentrations of TU50 were added to K562 cells and after 4 h the amount of Bcr-Abl was measured in whole cell lysates.

UCHL3 = biological target: T4, UCHL3 (Mus musculus, UniProt Q9JKB1); test: Cy5-Ub-VME activity profiling of treated BaF3/p210 cells, UCHL3; type: cell-based, murine; settings: 50 μM, 4 h
T4 construct: endogenous in cells; host or cells: BaF3/p210
T4 sequence (Q9JKB1 1-230): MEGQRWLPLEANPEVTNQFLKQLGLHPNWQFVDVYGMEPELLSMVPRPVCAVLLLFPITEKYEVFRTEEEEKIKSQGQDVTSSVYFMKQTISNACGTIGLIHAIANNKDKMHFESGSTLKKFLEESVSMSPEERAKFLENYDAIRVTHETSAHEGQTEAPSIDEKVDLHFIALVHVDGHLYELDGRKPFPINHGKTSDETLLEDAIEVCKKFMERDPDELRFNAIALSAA
Method: FIG. 9 has two panels (A and B) depicting data showing that TUs inhibit DUBs in cells. BaF3/p210 cells were incubated with the stated concentration of compound for 4 h. After this time cells were lysed using beads, lysates were normalized, then exposed to Cy5-Ub-VME for 5 min. After quenching, lysates were resolved by SDS-PAGE, analyzed on typhoon, then stained by Coomassie. Panel A is an image of the SDS-PAGE gel visualized via Typhoon imager. Panel B is an image of the SDS PAGE gel stained with Coomassie.
The increased promiscuity of the inhibitors when the experiment is carried out in cells likely stems from the increased assay time (4 h vs 20 min) coupled with the slow on rates of the inhibitors and their targets.

BaF3 parent = test: Growth inhibition assay, BaF3 parent; type: cell-based; settings: at higher concentrations than BaF3/p210
From the text: MCL1 is required to sustain growth of many transformed cells and is also regulated by USP9x. […] These findings help to explain why these compounds are toxic to Bcr-Abl independent cancer lines, especially BaF3.

3T3 = test: Proliferation assay, 3T3; settings: Mus musculus, NIH3T3, 72 h, read-out: EC50 growth inhibition 3T3
Method: Proliferation assays for adherent cells were conducted by plating cells at 5%-10% confluence in 96 well plates together with compound or 0.1% DMSO. Cells were allowed to grow for 48 h and then Alamar Blue® was added and number of cells was measured by fluorescence on a microplate reader.

[4] = HA-Ub-VS profiling, values in text, read-out: EC50 for USP9x
[5] = inhibition of USP9x in K562 lysates, data from FIG. 1, read-out: EC50

T1 sequence (Q93008 whole entry): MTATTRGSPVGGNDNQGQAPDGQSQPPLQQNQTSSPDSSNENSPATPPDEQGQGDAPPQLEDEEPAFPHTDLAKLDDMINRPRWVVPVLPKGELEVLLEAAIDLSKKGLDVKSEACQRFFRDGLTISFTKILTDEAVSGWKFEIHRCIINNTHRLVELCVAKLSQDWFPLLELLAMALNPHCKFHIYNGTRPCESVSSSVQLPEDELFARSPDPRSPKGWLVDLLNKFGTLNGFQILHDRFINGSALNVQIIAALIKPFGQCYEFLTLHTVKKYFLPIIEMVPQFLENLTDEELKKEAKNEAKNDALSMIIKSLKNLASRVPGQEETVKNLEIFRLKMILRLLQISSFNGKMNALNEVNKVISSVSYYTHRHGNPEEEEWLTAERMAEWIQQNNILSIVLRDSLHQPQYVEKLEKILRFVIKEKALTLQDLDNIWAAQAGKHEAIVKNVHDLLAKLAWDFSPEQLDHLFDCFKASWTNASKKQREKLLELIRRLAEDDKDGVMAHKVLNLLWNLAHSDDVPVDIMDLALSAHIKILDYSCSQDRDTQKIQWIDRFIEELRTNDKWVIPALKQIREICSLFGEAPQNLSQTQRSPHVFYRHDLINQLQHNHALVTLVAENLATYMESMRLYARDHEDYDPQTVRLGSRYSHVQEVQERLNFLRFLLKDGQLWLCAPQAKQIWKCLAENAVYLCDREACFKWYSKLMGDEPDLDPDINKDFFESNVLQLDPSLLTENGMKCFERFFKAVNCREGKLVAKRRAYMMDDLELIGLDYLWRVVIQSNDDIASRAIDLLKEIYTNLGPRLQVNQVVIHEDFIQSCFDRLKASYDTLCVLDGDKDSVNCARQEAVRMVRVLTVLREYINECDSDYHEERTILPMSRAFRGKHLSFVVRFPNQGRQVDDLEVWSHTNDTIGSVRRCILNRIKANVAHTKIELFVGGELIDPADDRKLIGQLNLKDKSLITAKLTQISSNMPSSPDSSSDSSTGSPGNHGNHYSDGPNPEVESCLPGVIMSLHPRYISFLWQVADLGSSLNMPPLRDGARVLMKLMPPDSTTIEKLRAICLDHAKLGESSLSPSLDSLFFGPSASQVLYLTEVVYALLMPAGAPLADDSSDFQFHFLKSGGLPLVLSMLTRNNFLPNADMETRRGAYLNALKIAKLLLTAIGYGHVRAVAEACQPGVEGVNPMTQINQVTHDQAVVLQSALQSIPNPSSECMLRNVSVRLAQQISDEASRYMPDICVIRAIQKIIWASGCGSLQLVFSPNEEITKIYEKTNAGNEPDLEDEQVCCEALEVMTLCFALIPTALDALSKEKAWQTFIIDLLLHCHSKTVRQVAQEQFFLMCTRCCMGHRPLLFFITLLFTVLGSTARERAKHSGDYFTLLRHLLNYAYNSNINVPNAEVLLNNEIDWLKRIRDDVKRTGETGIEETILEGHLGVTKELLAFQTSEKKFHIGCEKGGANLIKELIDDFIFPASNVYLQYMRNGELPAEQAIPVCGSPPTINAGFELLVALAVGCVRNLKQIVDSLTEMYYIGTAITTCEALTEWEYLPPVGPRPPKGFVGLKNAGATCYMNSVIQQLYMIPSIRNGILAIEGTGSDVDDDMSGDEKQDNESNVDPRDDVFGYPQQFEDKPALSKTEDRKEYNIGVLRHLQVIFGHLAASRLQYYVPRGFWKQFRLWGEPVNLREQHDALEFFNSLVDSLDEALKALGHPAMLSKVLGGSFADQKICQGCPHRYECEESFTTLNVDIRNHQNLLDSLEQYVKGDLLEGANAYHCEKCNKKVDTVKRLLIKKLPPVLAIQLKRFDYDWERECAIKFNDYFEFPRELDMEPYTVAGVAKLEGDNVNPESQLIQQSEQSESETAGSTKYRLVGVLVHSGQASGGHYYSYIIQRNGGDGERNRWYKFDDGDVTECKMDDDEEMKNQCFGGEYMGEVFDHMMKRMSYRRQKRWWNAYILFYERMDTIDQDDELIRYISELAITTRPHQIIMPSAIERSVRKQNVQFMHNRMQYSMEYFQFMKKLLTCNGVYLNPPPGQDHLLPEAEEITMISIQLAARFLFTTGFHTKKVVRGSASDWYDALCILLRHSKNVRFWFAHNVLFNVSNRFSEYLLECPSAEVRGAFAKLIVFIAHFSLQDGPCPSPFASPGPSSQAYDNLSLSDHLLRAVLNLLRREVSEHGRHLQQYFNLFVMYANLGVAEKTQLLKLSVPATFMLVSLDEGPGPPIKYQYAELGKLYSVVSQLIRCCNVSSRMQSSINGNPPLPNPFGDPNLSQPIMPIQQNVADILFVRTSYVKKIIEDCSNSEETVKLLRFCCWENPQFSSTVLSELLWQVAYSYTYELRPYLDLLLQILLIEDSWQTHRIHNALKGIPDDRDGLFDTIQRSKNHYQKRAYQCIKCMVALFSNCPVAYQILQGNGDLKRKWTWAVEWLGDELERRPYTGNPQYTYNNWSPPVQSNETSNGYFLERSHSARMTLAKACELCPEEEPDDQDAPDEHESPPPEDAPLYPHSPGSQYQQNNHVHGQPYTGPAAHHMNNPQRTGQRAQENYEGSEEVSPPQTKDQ

Structure (SMILES)	inhibition of USP9x (USP9x [1])	EC50 (USP9x [1]; [4]) [µM]	EC50 (USP9x [1]; [5]) [µM]	selectivity for USP9x among Cy5-Ub-VME reactive bands (USP9x [2])	growth inhibition of BaF3/p210 cells (BaF3/p210 cells)	selectivity for BaF3/p210 over NIH3T3 cells (BaF3/p210 cells)	selectivity for BaF3/p210 over other cancer lines (BaF3/p210 cells)	EC50 (BaF3/p210 cells) [µM]	apoptosis and necrosis in K562 (K562 cells)	inhibition of pure 20S proteasome [3]	GFP signal (G76VUb-GFP in COS1 cells; COS1, 8 h)	inhibition of the proteasome in G76VUb-GFP assay (G76VUb-GFP in COS1 cells; COS1, 8 h)	decrease in Bcr-Abl (Bcr-Abl)	EC50 (Bcr-Abl; K562, 4 h, read-out: EC50 for Bcr-Abl degradation) [µM]	effect on UCHL3 (UCHL3)	susceptibility of BaF3 parent (growth inhibition) (BaF3 parent)	EC50 (3T3) [µM]	GFP signal (G76VUb-GFP in COS1 cells; COS1, at 50 μM)
CC(C)(C)OC(=O)NCc1cccc(N=C=S)c1 [TU50]	significant inhibition	6 to 12	9	clearly the most affected	good growth inhibition	over a ten-fold selectivity	at least a five-fold selectivity	16	large increase in both apoptosis and necrosis	did not inhibit	decreased the GFP signal	did not inhibit	four-fold decrease	12	relatively unaffected	susceptible	80 ± 10	–
CC(C)(C)OC(=O)NCCc1ccc(N=C=S)cc1 [TU46]	significant inhibition	6 to 12	12	selective for USP9x	good growth inhibition	over a ten-fold selectivity	at least a five-fold selectivity	11	large increase in both apoptosis and necrosis	did not inhibit	–	did not inhibit	four-fold decrease	–	relatively unaffected	susceptible	> 110	slight increase in GFP signal
O=C(NCc1ccc(N=C=S)cc1)OCc1ccccc1 [TU49]	–	–	–	–	good growth inhibition	–	–	–	large increase in both apoptosis and necrosis	did not inhibit	decreased the GFP signal	did not inhibit	four-fold decrease	–	relatively unaffected	–	> 110	–
